Data from US11401278B2, “Macrocyclic indole derivatives” (The Broad Institute, Inc., priority 2017, dated 2022).
Several values for one entry are separate records, joined by “and”; a condition that tells them apart may be missing. Equal entries are not always repeated. Where two headings read alike, the source gives them in different places.

Tests used:
MCL-1 = MCL-1 (Homo sapiens (Human), UniProt Q07820, K194A/K197A/R201A); test: Protein-protein interaction assay MCL-1/Noxa BH3 peptide (MCL-1 assay, TR-FRET); format: binding; conditions: MBP-MCL-1 / Noxa BH3 peptide, median
MCL-1, sequence (Q07820 whole entry K194A/K197A/R201A, looked up, the tested form may be a part): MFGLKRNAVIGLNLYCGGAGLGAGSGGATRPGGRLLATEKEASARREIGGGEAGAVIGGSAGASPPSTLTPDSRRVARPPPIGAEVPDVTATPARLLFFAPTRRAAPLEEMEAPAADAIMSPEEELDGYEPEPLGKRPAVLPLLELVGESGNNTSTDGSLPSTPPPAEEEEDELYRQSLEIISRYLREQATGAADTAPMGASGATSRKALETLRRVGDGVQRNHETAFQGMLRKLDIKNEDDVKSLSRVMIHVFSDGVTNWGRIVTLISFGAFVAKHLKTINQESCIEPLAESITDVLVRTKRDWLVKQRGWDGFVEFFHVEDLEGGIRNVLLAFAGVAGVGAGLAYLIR
Outline: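 MBP-fused MCL-1 (aa 173-329, 1 nM) was pre-incubated with compound for 10 min at 22° C, then biotinylated Noxa BH3 peptide (1 nM) was added with anti-MBP-Eu cryptate and streptavidin-XL665. Incubation was 1 h at 22° C, then overnight at 4° C, in Tris pH 7 buffer. The 665/620 nm ratio over 11 concentrations (0.1 nM-20 μM) gave IC50 by 4-parameter fit.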

AMO-1 = test: Antiproliferation assay (Assay 7), AMO-1; format: cell-based; conditions: CellTiter-Glo, several values per example
Outline: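 Cells were treated with compound for 72 hours at 37° C in a humidified incubator, and viability was then read by CellTiter-Glo luminescence. A parallel reference plate was read at time zero (day 0) in the same way for baseline determination.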

[1] = Homo sapiens, AMO1, 72 h, read-out: Antiproli AMO-1 [M] IC50
[2] = 72 hours, read-out: Antiproli AMO-1 [M] IC50

Structure (SMILES) | IC50 (MCL-1) | IC50 (AMO-1; [1]) | IC50 (AMO-1; [2]) | IC50 (AMO-1; 72 hours, listed as 09, read-out: Antiproli AMO-1 [M] IC50)
Cc1c2c(nn1C)CNS(=O)(=O)CCCn1c(C(=O)O)c(CCCOc3cccc4cc(F)ccc34)c3ccc(Cl)c-2c31 (single isomer, unassigned; enantiomer 2) [Example 52, 4-chloro-7-{3-[(6-fluoronaphthalen-1-yl)oxy]propyl}-2,3-dimethyl-13,13-dioxo-10,11,12,13,14,15-hexahydro-2H-13lambda^6-pyrazolo[3′,4′:4,5][1,2,8]thiadiazacycloundecino[6,7,8-hi]indole-8-carboxylic acid (Enantiomer 2)] | 23 nM | – | 1.1e-05 M | –
CCc1c2c(nn1C)CN(C)S(=O)(=O)CCCn1c(C(=O)O)c(CCCOc3cccc4cc(F)ccc34)c3ccc(F)c-2c31 (single isomer, unassigned; enantiomer 2) [Example 9, (−)-3-Ethyl-4-fluoro-7-{3-[(6-fluoronaphthalen-1-yl)oxy]propyl}-2,14-dimethyl-13,13-dioxo-10,11,12,13,14,15-hexahydro-2H-13λ^6-pyrazolo[3′,4′:4,5][1,2,8]thiadiazacycloundecino-[6,7,8-hi]indole-8-carboxylic acid (Enantiomer 2)] | 34 nM | – | – | > 3.3e-05 M
CCc1c2c(nn1C)CN(CCCN1CCCC1=O)S(=O)(=O)CCCn1c(C(=O)O)c(CCCOc3cccc4ccccc34)c3cccc-2c31 (racemic) [Example 13, (rac)-12-Ethyl-11-methyl-1-(3-(naphthalen-1-yloxy)propyl)-8-(3-(2-oxopyrrolidin-1-yl)propyl)-5,6,9,11-tetrahydro-4H,8H-pyrazolo[3′,4′:4,5][1]thia[2,8]diazacycloundecino[6,7,8-hi]indole-2-carboxylic acid 7,7-dioxide] | 6.3 nM | > 3.3e-05 M | – | –
CCc1c2c(nn1C)C(CCC1CCOCC1)N(C)S(=O)(=O)CCCn1c(C(=O)O)c(CCCOc3cccc4cc(F)ccc34)c3ccc(Cl)c-2c31 (single isomer, unassigned; enantiomer 4) [Example 64, (−)-4-chloro-3-ethyl-7-{3-[(6-fluoronaphthalen-1-yl)oxy]propyl}-2,14-dimethyl-15-[2-(oxan-4-yl)ethyl]-13,13-dioxo-10,11,12,13,14,15-hexahydro-2H-13lambda^6-pyrazolo[3′,4′:4,5][1,2,8]thiadiazacycloundecino[6,7,8-hi]indole-8-carboxylic acid (Enantiomer 4)] | 21 nM | – | 1e-06 M | –
Cc1c2c(nn1C)CN(C1CC1)S(=O)(=O)CCCn1c(C(=O)O)c(CCCOc3cccc4cc(F)ccc34)c3ccc(Cl)c-2c31 (racemic) [Example 41, (rac)-4-chloro-14-cyclopropyl-7-{3-[(6-fluoro-1-naphthyl)oxy]propyl}-2,3-dimethyl-11,12,14,15-tetrahydro-2H,10H-pyrazolo[3′,4′:4,5][1,2,8]thiadiazacycloundecino[6,7,8-hi]indole-8-carboxylic acid 13,13-dioxide] | 1.3 nM | – | 8e-07 M | –
CCc1c2c(nn1C)CN(CCCN1CCCC1)S(=O)(=O)CCCn1c(C(=O)O)c(CCCOc3cccc4ccccc34)c3cccc-2c31 (racemic) [Example 16, (rac)-12-Ethyl-11-methyl-1-(3-(naphthalen-1-yloxy)propyl)-8-(3-(pyrrolidin-1-yl)propyl)-5,6,9,11-tetrahydro-4H,8H-pyrazolo[3′,4′:4,5][1]thia[2,8]diazacycloundecino[6,7,8-hi]indole-2-carboxylic acid 7,7-dioxide] | 5.7 nM | > 3.3e-05 M | – | –
CCc1c2c(nn1C)CNS(=O)(=O)CCCn1c(C(=O)O)c(CCCOc3cccc4ccccc34)c3cccc-2c31 (racemic) [Example 17, (rac)-12-Ethyl-11-methyl-1-(3-(naphthalen-1-yloxy)propyl)-4,5,6,8,9,11-hexahydropyrazolo[3′,4′:4,5][1,2,8]thiadiazacycloundecino[6,7,8-hi]indole-2-carboxylic acid 7,7-dioxide] | 8.1 nM | > 3.3e-05 M | – | –
Cc1c2c(nn1C)CN(C)S(=O)(=O)CCCn1c(C(=O)O)c(CCCOc3cccc4ccccc34)c3ccc(F)c-2c31 (racemic) [Example 26, (rac)-13-Fluoro-8,11,12-trimethyl-1-(3-(naphthalen-1-yloxy)propyl)-5,6,9,11-tetrahydro-4H,8H-pyrazolo[3′,4′:4,5][1]thia[2,8]diazacycloundecino[6,7,8-hi]indole-2-carboxylic acid 7,7-dioxide] | 3.6 nM | 7.1e-06 M | – | –
Cc1cc(OCCCc2c(C(=O)O)n3c4c(c(F)ccc24)-c2c(nn(C)c2C)CN(C)S(=O)(=O)CCC3)cc(C)c1Cl (racemic) [Example 28, (rac)-1-(3-(4-Chloro-3,5-dimethylphenoxy)propyl)-13-fluoro-8,11,12-trimethyl-5,6,9,11-tetrahydro-4H,8H-pyrazolo[3′,4′:4,5][1]thia[2,8]diazacycloundecino[6,7,8-hi]indole-2-carboxylic acid 7,7-dioxide] | 4 nM | 1.2e-05 M | – | –

Second part, led by results:

IC50 (MCL-1) | Structure (SMILES) | IC50 (AMO-1; [1]) | IC50 (AMO-1; [2]) | IC50 (AMO-1; 72 hours, listed as 09, read-out: Antiproli AMO-1 [M] IC50)
1.7 nM | CCc1c2c(nn1C)CN(C)S(=O)(=O)CCCn1c(C(=O)O)c(CCCOc3cccc4c3CCC4)c3ccc(Cl)c-2c31 [Example 21, (rac)-13-Chloro-1-(3-((2,3-dihydro-1H-inden-4-yl)oxy)propyl)-12-ethyl-8,11-dimethyl-5,6,9,11-tetrahydro-4H,8H-pyrazolo[3′,4′:4,5][1]thia[2,8]diazacycloundecino[6,7,8-hi]indole-2-carboxylic acid 7,7-dioxide] | 2.6e-06 M | – | –
3.6 nM | CCc1c2c(nn1C)CN(C)S(=O)(=O)CCCn1c(C(=O)O)c(CCCOc3cccc4ccccc34)c3ccc(F)c-2c31 (racemic) [Example 31, (rac)-12-Ethyl-13-fluoro-8,11-dimethyl-1-(3-(naphthalen-1-yloxy)propyl)-5,6,9,11-tetrahydro-4H,8H-pyrazolo[3′,4′:4,5][1]thia[2,8]diazacycloundecino[6,7,8-hi]indole-2-carboxylic acid 7,7-dioxide] | 4.2e-06 M | 3.9e-06 M | –
3.4 nM | CCc1c2c(nn1C)CN(C)S(=O)(=O)CCCn1c(C(=O)O)c(CCCOc3ccc(F)c4ccccc34)c3ccc(Cl)c-2c31 [Example 24, (rac)-13-Chloro-12-ethyl-1-(34(4-fluoronaphthalen-1-yl)oxy)propyl)-8,11-dimethyl-4,5,6,8,9,11-hexahydropyrazolo[3′,4′:4,5][1,2,8]thiadiazacycloundecino[6,7,8-hi]indole-2-carboxylic acid 7,7-dioxide] | 4.3e-06 M | – | –
1.5 nM | CCc1c2c(nn1C)CN(C)S(=O)(=O)CCCn1c(C(=O)O)c(CCCOc3cccc4c3CCC4)c3ccc(F)c-2c31 (racemic) [Example 32, (rac)-1-(3-((2,3-Dihydro-1H-inden-4-yl)oxy)propyl)-12-ethyl-13-fluoro-8,11-dimethyl-5,6,9,11-tetrahydro-4H,8H-pyrazolo[3′,4′:4,5][1]thia[2,8]diazacycloundecino[6,7,8-hi]indole-2-carboxylic acid 7,7-dioxide] | 2.4e-06 M | 3.9e-06 M | –
1.9 nM | CCc1c2c(nn1C)C(CCC1CCOCC1)N(C)S(=O)(=O)CCCn1c(C(=O)O)c(CCCOc3cccc4cc(F)ccc34)c3ccc(Cl)c-2c31 (racemic) [Example 59, (rac)-4-chloro-3-ethyl-7-{3-[(6-fluoro-1-naphthyl)oxy]propyl}-2,14-dimethyl-15-[2-(tetrahydro-2H-pyran-4-yl)ethyl]-11,12,14,15-tetrahydro-2H,10H-pyrazolo[3′,4′:4,5][1,2,8]thiadiazacycloundecino[6,7,8-hi]indole-8-carboxylic acid 13,13-dioxide (Racemate 2)] | – | 2.1e-07 M | –
0.94 nM | CCc1c2c(nn1C)C(CCC1CCOCC1)N(C)S(=O)(=O)CCCn1c(C(=O)O)c(CCCOc3cccc4cc(F)ccc34)c3ccc(Cl)c-2c31 (single isomer, unassigned; enantiomer 1) [Example 61, (+)-4-chloro-3-ethyl-7-{3-[(6-fluoronaphthalen-1-yl)oxy]propyl}-2,14-dimethyl-15-[2-(oxan-4-yl)ethyl]-13,13-dioxo-10,11,12,13,14,15-hexahydro-2H-13lambda^6-pyrazolo[3′,4′:4,5][1,2,8]thiadiazacycloundecino[6,7,8-hi]indole-8-carboxylic acid (Enantiomer 1)] | – | 2.5e-08 M and 2.8e-08 M | –
3.5 nM | CCc1c2c(nn1C)CN(C)S(=O)(=O)CCCn1c(C(=O)O)c(CCCOc3ccc(F)c4ccccc34)c3ccc(F)c-2c31 (racemic) [Example 35, (rac)-12-Ethyl-13-fluoro-1-(34(4-fluoronaphthalen-1-yl)oxy)propyl)-8,11-dimethyl-5,6,9,11-tetrahydro-4H,8H-pyrazolo[3′,4′:4,5][1]thia[2,8]diazacycloundecino[6,7,8-hi]indole-2-carboxylic acid 7,7-dioxide] | 5.2e-06 M | 6.6e-06 M | –
1.1 nM | CCc1c2c(nn1C)C(CCC1CCOCC1)N(C)S(=O)(=O)CCCn1c(C(=O)O)c(CCCOc3cccc4cc(F)ccc34)c3ccc(Cl)c-2c31 (single isomer, unassigned; enantiomer 3) [Example 63, (+)-4-chloro-3-ethyl-7-{3-[(6-fluoronaphthalen-1-yl)oxy]propyl}-2,14-dimethyl-15-[2-(oxan-4-yl)ethyl]-13,13-dioxo-10,11,12,13,14,15-hexahydro-2H-13lambda^6-pyrazolo[3′,4′:4,5][1,2,8]thiadiazacycloundecino[6,7,8-hi]indole-8-carboxylic acid (Enantiomer 3)] | – | 4e-08 M and 4.5e-08 M and 3.3e-08 M | –
